In PMC10743905, “Design, Synthesis, and In Vitro and In Vivo Bioactivity Studies of Hydrazide–Hydrazones of 2,4-Dihydroxybenzoic Acid” (International Journal of Molecular Sciences, 2023):
Values after ≈ are worked out from the molar mass of the structure shown. Like-named read-outs stand apart in the source and are kept apart here. Values belong to the compound of their own block, whether it stands above or below them.

Legend:
Test in all cases: Broth microdilution MIC/MBC
Type in all cases: cell-based
[1] = tested on: Enterococcus faecalis ATCC 29212
Excerpt: (§1) In vitro antimicrobial activity assays - Methodology
(§2) The examined compounds 1 - 24 were screened in vitro for antibacterial and antifungal activities using the broth microdilution method according to procedure reported earlier by our research group and European Committee on Antimicrobial Susceptibility Testing (EUCAST) and Clinical and Laboratory Standards Institute (CLSI) guidelines against a panel of reference and clinical or saprophytic strains of microorganisms, in-cluding Gram-positive bacteria, Staphylococcus aureus ATCC 43300 (Methicillin Resistant S. aureus – MRSA), Staphylococcus aureus ATCC 29213 (Methicillin Susceptible S. aureus – MSSA), Staphylococcus epidermidis ATCC 12228, Enterococcus faecalis ATCC 29212, Micro-coccus luteus ATCC 10240, Bacillus subtilis ATCC 6633 and Bacillus cereus ATCC 10876), Gram-negative bacteria (Bordetella bronchiseptica ATCC 4617, Escherichia coli ATCC 25922, Klebsiella pneumoniae ATCC 13883, Proteus mirabilis ATCC 12453, Salmonella typhimurium ATCC 14028 and Pseudomonas aeruginosa ATCC 9027) and fungi belonging to yeasts (Can-dida albicans ATCC 10231, Candida albicans ATCC 2091, Candida parapsilosis ATCC 22019, Candida glabrata ATCC 90030 and Candida krusei ATCC 14243). The microorganisms be-longing to ATCC came from American Type Culture Collection, routinely used for the evaluation of antimicrobials. All the used microbial cultures were first subcultured on nu-trient agar or Sabouraud agar at 35°C for 18-24 h or 30°C for 24-48 h for bacteria and fungi, […]
(§3) The surface of Mueller-Hinton agar (for bacteria) and RPMI 1640 with MOPS (for fungi) were inoculated with the suspensions of bacterial or fungal species. Microbial suspensions were prepared in sterile saline with an optical density of McFarland standard scale 0.5.
(§4) Samples containing examined compounds were dissolved in dimethyl sulfoxide (DMSO).
(§5) Furthermore, bacterial and fungal suspensions were put onto Petri dishes with solid me-dia containing 2 mg/mL of the tested compounds followed incubation at 37°C for 24h and 30°C for 48h for bacteria and fungi, respectively. The inhibition of microbial growth was judged by comparison with a control culture prepared without any sample tested. Ciprof-loxacin, vancomycin, nitrofurantoin, cefuroxime, ampicillin or nystatin (Sigma) were used as a reference antibacterial or antifungal compounds, respectively.
(§6) Subsequently, the MIC (Minimal Inhibitory Concentration) of the compounds was ex-amined by the microdilution broth method, using their two-fold dilutions in Mueller- […]
(§7) Hinton broth or (for bacteria) and RPMI 1640 broth with MOPS (for fungi) prepared in 96-well polystyrene plates. Final concentrations of the compounds ranged from 1000 to 0.488 µg/ml. Microbial suspensions were prepared in 0.85% NaCl with an optical density of 0.5 McFarland standard. Next each bacterial or fungal suspension was added per each well containing broth and various concentrations of the examined compounds. After incuba-

[2] = tested on: Staphylococcus aureus ATCC 43300; details: Staphylococcus aureus ATCC 43300 (MRSA)
Excerpt: as §1
as §2, with “antimicrobials.” for “antimicrobials. All the used microbial cultures were first subcultured on nu-trient agar or Sabouraud agar at 35°C for 18-24 h or 30°C for 24-48 h for bacteria and fungi,”
(§8) Samples containing examined compounds were dissolved in dimethyl sulfoxide (DMSO). […]
as §6, §7

[3] = tested on: Salmonella typhimurium ATCC 14028; details: for MBC / MIC: Salmonella enterica
Excerpt: as §1
as §2, with “antimicrobials.” for “antimicrobials. All the used microbial cultures were first subcultured on nu-trient agar or Sabouraud agar at 35°C for 18-24 h or 30°C for 24-48 h for bacteria and fungi,”
as §8, §6, §7

[4] = tested on: Proteus mirabilis ATCC 12453; details: ATCC12453
Excerpt: as §1
as §2, with “antimicrobials.” for “antimicrobials. All the used microbial cultures were first subcultured on nu-trient agar or Sabouraud agar at 35°C for 18-24 h or 30°C for 24-48 h for bacteria and fungi,”
as §8, §6, §7

[5] = tested on: Staphylococcus epidermidis ATCC 12228
Excerpt: as §1
as §2, with “antimicrobials.” for “antimicrobials. All the used microbial cultures were first subcultured on nu-trient agar or Sabouraud agar at 35°C for 18-24 h or 30°C for 24-48 h for bacteria and fungi,”
as §8, §6, §7

[6] = tested on: Micrococcus luteus ATCC 10240
Excerpt: as §1
as §2, with “antimicrobials.” for “antimicrobials. All the used microbial cultures were first subcultured on nu-trient agar or Sabouraud agar at 35°C for 18-24 h or 30°C for 24-48 h for bacteria and fungi,”
as §8, §6, §7

[7] = tested on: Bacillus subtilis ATCC 6633
Excerpt: Detailed procedures are presented in the Supplementary Materials. […]
as §1, §2, §3, §4, §5, §6, §7

[8] = tested on: Bacillus cereus ATCC 10876
Excerpt: as §1, §2, §3, §4, §5, §6, §7

[9] = tested on: Bordetella bronchiseptica ATCC 4617; details: ATCC4617
Excerpt: as §1, §2, §3, §4, §5, §6, §7

[10] = tested on: Klebsiella pneumoniae ATCC 13883; details: ATCC13883
Excerpt: as §1, §2, §3, §4, §5, §6, §7

[11] = tested on: Escherichia coli ATCC 25922; details: ATCC25922
Excerpt: as §1, §2, §3, §4, §5, §6, §7

Structure (SMILES): CN[C@H](CC(C)C)C(=O)N[C@H]1C(=O)N[C@@H](CC(N)=O)C(=O)N[C@H]2C(=O)N[C@H]3C(=O)N[C@H](C(=O)N[C@H](C(=O)O)c4cc(O)cc(O)c4-c4cc3ccc4O)[C@H](O)c3ccc(c(Cl)c3)Oc3cc2cc(c3O[C@@H]2O[C@H](CO)[C@@H](O)[C@H](O)[C@H]2O[C@H]2C[C@](C)(N)[C@H](O)[C@H](C)O2)Oc2ccc(cc2Cl)[C@H]1O [VA, vancomycin, reference compound]
MBC [1]: 1.95 µg/mL (≈ 1.35 µM)
MBC/MIC [1]: 2
MIC [1]: 0.98 µg/mL (≈ 0.676 µM)

MIC [2]: 7.81 µg/mL (≈ 32.8 µM)
MIC [3]: 31.2 µg/mL (≈ 131 µM)
MIC [4]: 62.5 µg/mL (≈ 262 µM)
MIC [5]: 3.91 µg/mL (≈ 16.4 µM)
MIC ([5]; ATCC12228, read-out: MIC): 3.91 µg/mL (≈ 16.4 µM)
MIC [6]: 62.5 µg/mL (≈ 262 µM)
MIC ([6]; ATCC10240, read-out: MIC): 62.5 µg/mL (≈ 262 µM)
MIC [7]: 3.91 µg/mL (≈ 16.4 µM)
MIC ([7]; ATCC6633, read-out: MIC): 3.91 µg/mL (≈ 16.4 µM)
MIC [8]: 7.81 µg/mL (≈ 32.8 µM)
MIC ([8]; ATCC10876, read-out: MIC): 7.81 µg/mL (≈ 32.8 µM)
MIC [9]: 125 µg/mL (≈ 525 µM)
MIC [10]: 15.6 µg/mL (≈ 65.6 µM)
MIC [11]: 7.81 µg/mL (≈ 32.8 µM)
Structure (SMILES): O=C1CN(/N=C/c2ccc([N+](=O)[O-])o2)C(=O)N1 [NIT, nitrofurantoin, reference compound]
MBC [2]: 15.6 µg/mL (≈ 65.6 µM)
MBC [3]: 62.5 µg/mL (≈ 262 µM)
MBC [4]: 125 µg/mL (≈ 525 µM)
MBC ([5]; ATCC12228): 7.81 µg/mL (≈ 32.8 µM)
MBC ([6]; ATCC10240): 62.5 µg/mL (≈ 262 µM)
MBC ([7]; ATCC6633): 3.91 µg/mL (≈ 16.4 µM)
MBC ([8]; ATCC10876): 15.6 µg/mL (≈ 65.6 µM)
MBC [9]: > 1000 µg/mL
MBC [10]: 31.2 µg/mL (≈ 131 µM)
MBC [11]: 15.6 µg/mL (≈ 65.6 µM)

MIC [7]: 62.5 µg/mL (≈ 179 µM)
MIC ([7]; ATCC6633, read-out: MIC): 62.5 µg/mL (≈ 179 µM)
Structure (SMILES): CC1(C)S[C@@H]2[C@H](NC(=O)[C@H](N)c3ccccc3)C(=O)N2[C@H]1C(=O)O [APC, ampicillin, reference compound]

MBC/MIC [3]: 1
MIC [3]: 0.06 µg/mL (≈ 0.181 µM)
Structure (SMILES): O=C(O)c1cn(C2CC2)c2cc(N3CCNCC3)c(F)cc2c1=O [CIP, ciprofloxacin, reference compound]
MBC [3]: 0.06 µg/mL (≈ 0.181 µM)
